Assay results published in US11407757B2, “Heterocycle compounds as Tyro3, Axl and MerTK (TAM) family of receptor tyrosine kinase inhibitors” (Development Center for Biotechnology, priority 2017, dated 2022).
pIC50: −log10 of the molar value. Read-outs that look alike come from different tables or passages of the source.

What was measured:
Axl kinase = Axl kinase (Homo sapiens (Human), UniProt P30530); assay: Axl kinase assay (AlphaScreen); assay type: biochemical; settings: activity level class
Met kinase = Met kinase (Homo sapiens, UniProt P08581); assay: Met kinase assay (AlphaScreen); assay type: biochemical
Mer kinase = Mer kinase (Homo sapiens (Human), UniProt Q12866); assay: Mer kinase assay (AlphaScreen); settings: read-out: Mer kinase IC50; activity level class
[1] = system: Gas6 ligand induced AKT phosphorylation; assay: Gas6 ligand induced AKT phosphorylation, western blotting in H1299 NSCLC cells; assay type: cell-based; settings: Homo sapiens, NCI-H1299, at 100 nM treatment, 100 ng/mL Gas6, read-out: inhibition activity against Gas6 ligand induced AKT phosphorylation
[2] = activity level class, read-out: Met kinase IC50

COc1nc(Nc2ccc(CN3CCC(C)CC3)cc2)nc2[nH]cc(-c3ccc(NS(=O)(=O)c4cc(F)ccc4F)cc3)c12 [Compound 2, 2,5-difluoro-N-(4-(4-methoxy-2-((4-((4-methylpiperidin-1-yl)methyl)phenyl)amino)-7H-pyrrolo[2,3-d]pyrimidin-5-yl)phenyl)benzene-sulfonamide]
pIC50 (Axl kinase): > 7.52
pIC50 (Met kinase): 6.40 to 7.00
pIC50 (Mer kinase): > 7.52

Cc1nc2ccc(-c3c[nH]c4nc(Nc5ccc(CN6CCN(C)CC6)cc5)nc(OCC5CCCO5)c34)cc2o1 (stereo not drawn) [Compound 67, 5-(2-methylbenzo[d]oxazol-6-yl)-N-(4-((4-methylpiperazin-1-yl)methyl)phenyl)-4-((tetrahydrofuran-2-yl)methoxy)-7H-pyrrolo [2,3-d]pyrimidin-2-amine]
pIC50 (Axl kinase): > 7.52
pIC50 (Met kinase; [2]): < 6.00
inhibition at 0.1 µM [1]: > 50%
pIC50 (Mer kinase): < 6.00

COCCOc1nc(Nc2ccc(CN3CCN(C)CC3)cc2)nc2[nH]cc(-c3ccc(NC(=O)c4cc(C)n(C)n4)cc3)c12 [Compound 76, N-(4-(4-(2-methoxyethoxy)-2-((4-((4-methylpiperazin-1-yl)methyl)phenyl)amino)-7H-pyrrolo[2,3-d]pyrimidin-5-yl)phenyl)-1,5-dimethyl-7H-pyrazole-3-carboxamide]
pIC50 (Axl kinase): > 7.52
pIC50 (Met kinase; [2]): < 6.00
inhibition at 0.1 µM [1]: > 50%
pIC50 (Mer kinase): < 6.00

COCCOc1nc(Nc2ccc(CN3CCN(C)CC3)cc2)nc2[nH]cc(-c3ccc(OCc4ccncc4)cc3F)c12 [Compound 93, 5-(2-fluoro-4-(pyridin-4-ylmethoxy)phenyl)-4-(2-methoxyethoxy)-N-(4-((4-methylpiperazin-1-yl)methyl)phenyl)-7H-pyrrolo[2,3-d]pyrimidin-2-amine]
pIC50 (Axl kinase): > 7.52
pIC50 (Met kinase; [2]): < 6.00
inhibition at 0.1 µM [1]: > 50%
pIC50 (Mer kinase): < 6.00

COCCOc1nc(Nc2ccc(CN3CCN(C)CC3)cc2)nc2[nH]cc(-c3ccc(S(=O)(=O)N4CCC4)cc3)c12 [Compound 94, 5-(4-(azetidin-1-ylsulfonyl)phenyl)-4-(2-methoxyethoxy)-N-(4-((4-methylpiperazin-1-yl)methyl)phenyl)-7H-pyrrolo[2,3-d]pyrimidin-2-amine]
pIC50 (Axl kinase): > 7.52
pIC50 (Met kinase; [2]): < 6.00
pIC50 (Mer kinase): < 6.00

COCCOc1nc(Nc2ccc(CN3CCN(C)CC3)cc2)nc2[nH]cc(-c3ccc(OCc4cccnc4)cc3F)c12 [Compound 95, 5-(2-fluoro-4-(pyridin-3-ylmethoxy)phenyl)-4-(2-methoxyethoxy)-N-(4-((4-methylpiperazin-1-yl)methyl)phenyl)-7H-pyrrolo[2,3-d]pyrimidin-2-amine]
pIC50 (Axl kinase): > 7.52
pIC50 (Met kinase; [2]): < 6.00
pIC50 (Mer kinase): < 6.00

COCCOc1nc(Nc2ccc(CN3CCN(C)CC3)cc2)nc2[nH]cc(-c3ccc(O)cc3F)c12 [Compound 96, 3-fluoro-4-(4-(2-methoxyethoxy)-2-((4-((4-methylpiperazin-1-yl)methyl)phenyl)amino)-7H-pyrrolo[2,3-d]pyrimidin-5-yl)phenol]
pIC50 (Axl kinase): > 7.52
pIC50 (Met kinase): 6.40 to 7.00
pIC50 (Mer kinase): > 7.52

COCCOc1nc(Nc2ccc(CN3CCN(C)CC3)cc2)nc2[nH]cc(-c3ccc(S(=O)(=O)N4CCCCC4)cc3)c12 [Compound 98, 4-(2-methoxyethoxy)-N-(4-((4-methylpiperazin-1-yl)methyl)phenyl)-5-(4-(piperidin-1-ylsulfonyl)phenyl)-7H-pyrrolo[2,3-d]pyrimidin-2-amine]
pIC50 (Axl kinase): > 7.52
pIC50 (Met kinase): 6.00 to 6.40
pIC50 (Mer kinase): < 6.00

COCCOc1nc(Nc2ccc(CN3CCN(C)CC3)cc2)nc2[nH]cc(-c3ccc(OCc4cnccc4OC)cc3F)c12 [Compound 99, 5-(2-fluoro-4-((4-methoxypyridin-3-yl)methoxy)phenyl)-4-(2-methoxyethoxy)-N-(4-((4-methylpiperazin-1-yl)methyl)phenyl)-7H-pyrrolo[2,3-d]pyrimidin-2-amine]
pIC50 (Mer kinase): < 6.00

COCCOc1nc(Nc2ccc(CN3CCN(C)CC3)cc2)nc2[nH]cc(-c3ccc(OCc4cncc(OC)c4)cc3F)c12 [Compound 100, 5-(2-fluoro-4-((5-methoxypyridin-3-yl)methoxy)phenyl)-4-(2-methoxyethoxy)-N-(4-((4-methylpiperazin-1-yl)methyl)phenyl)-7H-pyrrolo[2,3-d]pyrimidin-2-amine]
pIC50 (Axl kinase): > 7.52
pIC50 (Met kinase; [2]): < 6.00
pIC50 (Mer kinase): < 6.00

COCCOc1nc(Nc2ccc(CN3CCN(C)CC3)cc2)nc2[nH]cc(-c3ccc(S(=O)(=O)N4CCN(C)CC4)cc3)c12 [Compound 102, 4-(2-methoxyethoxy)-N-(4-((4-methylpiperazin-1-yl)methyl)phenyl)-5-(4-((4-methylpiperazin-1-yl)sulfonyl)phenyl)-7H-pyrrolo[2,3-d]pyrimidin-2-amine]
pIC50 (Mer kinase): < 6.00

COCCOc1nc(Nc2ccc(CN3CCC(C)CC3)cc2)nc2[nH]cc(-c3ccc(OCc4ccccn4)cc3F)c12 [Compound 109, 5-(2-fluoro-4-(pyridin-2-ylmethoxy)phenyl)-4-(2-methoxyethoxy)-N-(4-((4-methylpiperidin-1-yl)methyl)phenyl)-7H-pyrrolo[2,3-d]pyrimidin-2-amine]
pIC50 (Axl kinase): > 7.52
pIC50 (Met kinase): 6.00 to 6.40
inhibition at 0.1 µM [1]: > 50%
pIC50 (Mer kinase): > 7.52
